SMILES strings stand for the structures.

The text below walks through data of patent US12643867B2, “Compositions and uses thereof” (University of Virginia Patent Foundation, priority 2017, dated 2026).

The target in this experiment is T1, DGKE (Diacylglycerol kinase epsilon) (Homo sapiens, UniProt P52429).
T1 construct: expressed in transfected cells; host or cells: SILAC HEK293T, membrane fraction
T1 sequence (P52429 1-567): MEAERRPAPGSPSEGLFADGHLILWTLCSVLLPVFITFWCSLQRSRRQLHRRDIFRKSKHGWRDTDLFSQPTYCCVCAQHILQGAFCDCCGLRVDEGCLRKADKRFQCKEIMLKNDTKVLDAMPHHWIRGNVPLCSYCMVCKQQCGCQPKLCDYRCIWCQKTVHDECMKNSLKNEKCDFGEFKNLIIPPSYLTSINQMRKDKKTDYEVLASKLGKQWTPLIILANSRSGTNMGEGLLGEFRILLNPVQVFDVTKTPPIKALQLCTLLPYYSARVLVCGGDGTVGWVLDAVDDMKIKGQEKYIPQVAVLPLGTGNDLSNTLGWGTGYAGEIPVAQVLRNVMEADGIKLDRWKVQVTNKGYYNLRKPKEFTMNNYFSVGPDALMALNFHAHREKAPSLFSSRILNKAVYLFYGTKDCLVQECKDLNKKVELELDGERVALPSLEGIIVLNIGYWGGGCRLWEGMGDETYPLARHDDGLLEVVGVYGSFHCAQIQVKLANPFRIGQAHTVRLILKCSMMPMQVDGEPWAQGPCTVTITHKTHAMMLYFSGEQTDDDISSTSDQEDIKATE
The experiment is described as follows: SILAC LC-MS ATP acyl phosphate probe competition, recombinant DGK-HEK293T lysates. It is filed as binding. The following applies: site DAGKa (K392); membrane fraction; ATP 1 mM; Ketanserin, Ritanserin 100 μM; RF001 1 mM. The text has this: Recombinant DGK proteins were produced by transient transfection of HEK293T cells with recombinant DNA. pDONR223-DGKK was a gift from William Hahn & David Root (Addgene plasmid #23487). pCSF107mT-GATEWAY-3′-FLAG was a gift from Todd Stukenberg (Addgene plasmid #67619). pCSF107mT-DGKK-FLAG construct was generated by recombination of the Addgene plasmids using the Gateway cloning system (Invitrogen). All other vectors were gifted to Dr. Kevin Lynch (University of Virginia, School of Medicine) by Dr. Kaoru Goto (Yamagata University, School of Medicine) and Dr. Fumio Sakane (Chiba University) and were kindly shared with us: pcDNA3-FLAG-DGKA (rat), pCMV-Tag2B-FLAG-DGKQ (human), pcDNA3-DGKE-3×Flag (human), and pCMV-SPORT6-HA-DGKZ (human). HEK293T cells were plated at a concentration of 400,000 cells in complete DMEM and grown to 50-60% confluency. A polyethyleneimine (PEI) stock solution was prepared (1 mg/mL, pH 7.4) and filter sterilized. Serum-free DMEM (600 μL) was mixed gently with 2.6 μg DNA and 20 μL of sterile PEI (1 mg/mL, pH 7.4) in a sterile microfuge tube. Mixtures were incubated for 30 min at 25° C. The mixture was then added drop-wise to each 10 cm^2 plate, rocked back and forth to mix, and placed back in the incubator. Cell pellets were harvested after two full days of growth, snap-frozen in liquid N2, and stored at −80° C. until use. Recombinant proteins were produced by transient transfection in SILAC HEK293T cells using the procedure described above, except that cells were plated at a concentration of 1×10^6 cells per 10 cm^2 plate and grown to ˜70% confluency prior to introducing transfection mixture.
Cell pellets were resuspended in kinase buffer (Dulbecco's PBS (DPBS, Hyclone), 20 mM MgCl2, EDTA-free protease inhibitors (Pierce)) and then lysed by sonication (3×1 sec pulse, 20% amplitude). The cell lysates were then subjected to centrifugation (100,000×g, 45 min at 4° C.) to isolate the cytosolic fraction in the supernatant and the membrane fraction as a pellet. […] Protein concentrations were measured using the Bio-Rad DC protein assay. […]
In the case of `O=C(c1ccc(F)cc1)C1CCN(CCn2c(=O)[nH]c3ccccc3c2=O)CC1` [Ketanserin], the “SILAC ratio, DGKE DAGKa probe-modified peptide” value (“SILAC ratio” for short) was 1.3.

Consider `Fc1ccc(C(=C2CCNCC2)c2ccc(F)cc2)cc1` [RF001, 4-(Bis(4-fluorophenyl)methylene) piperidine], for which the “SILAC ratio” value stood at 0.7.

Regarding `Cc1nc2sccn2c(=O)c1CCN1CCC(=C(c2ccc(F)cc2)c2ccc(F)cc2)CC1` [Ritanserin], the “SILAC ratio” value was found to be 1.0.
